Reference: patent US9586952B2, “Polycyclic estrogen receptor modulators and uses thereof” (SERAGON PHARMACEUTICALS, INC., priority 2013, dated 2017)

What was measured:
[1] = target: T1, ER-α (Homo sapiens, UniProt P03372); assay: Breast Cancer Cell ER-α In Cell Western Assay (SP1); format: cell-based; details: MCF-7 cells, 4 or 24 hr post compound addition, SP1 antibody; for Emax: MCF7, read-out: ER-α In Cell Western Assay (SP1) Max Response; for DC50: read-out: ER-α In Cell Western Assay (SP1) IC50
T1 construct: endogenous in cells; host or cells: MCF-7
T1 sequence (P03372 1-595): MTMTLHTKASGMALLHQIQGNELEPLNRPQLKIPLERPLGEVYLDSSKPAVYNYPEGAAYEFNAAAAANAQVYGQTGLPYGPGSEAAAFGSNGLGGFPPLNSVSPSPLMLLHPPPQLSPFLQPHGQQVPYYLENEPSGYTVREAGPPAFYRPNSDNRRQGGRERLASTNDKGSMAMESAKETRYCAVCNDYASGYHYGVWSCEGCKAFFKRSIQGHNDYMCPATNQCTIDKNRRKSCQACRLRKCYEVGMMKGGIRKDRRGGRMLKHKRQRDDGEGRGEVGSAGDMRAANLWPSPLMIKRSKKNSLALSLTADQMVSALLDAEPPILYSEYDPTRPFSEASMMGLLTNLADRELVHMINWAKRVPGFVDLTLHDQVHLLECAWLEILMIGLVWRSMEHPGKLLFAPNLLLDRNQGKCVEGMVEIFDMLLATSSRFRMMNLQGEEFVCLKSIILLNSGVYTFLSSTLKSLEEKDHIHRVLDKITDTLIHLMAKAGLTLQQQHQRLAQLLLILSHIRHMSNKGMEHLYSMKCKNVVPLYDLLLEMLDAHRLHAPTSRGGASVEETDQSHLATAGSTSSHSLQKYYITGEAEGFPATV
Method: MCF-7 cells were adjusted to a concentration of 200,000 cells per mL in RPMI containing 10% charcoal-stripped FBS and 20 mM HEPES. 16 microliters of the cell suspension (3200 cells) was added to each well of a poly-D-lysine 384 well plate, and the cells were incubated overnight to allow the cells to adhere. The following day an eleven point, serial semilog dilution of each compound was added to the cells in 16 μL at a final concentration ranging from 0.3-0.000003 μM. At 4 or 24 hr post compound addition, the cells were fixed (10% formalin in PBS) for 20 minutes. Cells were permeablized in PBS 0.1% Triton and blocked with LICOR blocking buffer (50 μl/well, 90′). The wells were then incubated overnight at 4° C. with SP1 rabbit monoclonal Ab (Thermo Scientific) diluted 1:1000 in LICOR blocking buffer/0.1% Tween-20. Wells which were treated with blocking buffer with Tween but no antibody were used as a background control. Wells were washed with 0.1% Tween-20/PBS and then incubated in goat anti-rabbit IRDye™ 800 CW (LICOR Inc.; 1:10000) and DRAQ5 DNA dye (1:2000 for 2 mM stock) diluted in LICOR blocking buffer containing 0.1% Tween-20 and 0.01% SDS for 60 minutes. Cells were washed (50 μl/well, 5′ each) in 0.1% Tween-20/PBS. Plates were scanned on a LICOR Odyssey infrared imaging system. Integrated intensities in the 800 nm channel and 700 nm channel were measured to determine levels of ER and DNA respectively. Percent ER levels were determined as follows: (Integrated intensity 800 nm sample/integrated intensity 700 nm sample)/(Integrated intensity 800 nm untreated cells/integrated intensity 700 nm untreated cells)×100=% ER levels.

[2] = system: MCF-7 cells; assay: MCF7 Viability Assay (Breast Cancer Cell Viability Assay); format: cell-based; details: 5 days' compound exposure, CellTiter-Glo; for IC50: Homo sapiens, MCF7, 120 h
Method: MCF-7 cells were adjusted to a concentration of 20,000 cells per mL in RPMI containing 10% FBS and 20 mM HEPES. 16 microliters of the cell suspension (320 cells) was added to each well of a 384 well plate, and the cells were incubated overnight to allow the cells to adhere. The following day an eleven point, serial semilog dilution of each compound was added to the cells in 16 μL at a final concentration ranging from 0.3-0.000003 μM. After 5 days' compound exposure, 16 μL of CellTiter-GLo (Promega, Madison Wis.) was added to the cells, and the relative luminescence units (RLUs) of each well were determined. CellTiter-Glo added to 32 μL of medium without cells was used to obtain a background value. The Percent viability of each sample was determined as follows: (RLU sample-RLU background/RLU untreated cells-RLU background)×100=% viability.

Structure (SMILES)	Emax [1] [%]	DC50 [1] [µM]	MCF7 Viability Assay Max Response [2]	IC50 [2] [µM]
O=C(O)/C=C/c1ccc(/C(=C(\c2ccccc2)C2CCC2)c2ccc(-c3cn[nH]c3)cc2)cc1 [Example 1, (E)-3-(4-((E)-1-(4-(1H-Pyrazol-4-yl)phenyl)-2-cyclobutyl-2-phenylvinyl)phenyl)acrylic acid]	≥ 40	≤ 0.1	++ (++ = a single % value ≧ 40%)	≤ 0.1
CC/C(=C(/c1ccc(/C=C/C(=O)O)cc1)c1ccc(-c2cncs2)cc1)c1ccc(F)cc1Cl [Example 2, (E)-3-(4-((E)-2-(2-Chloro-4-fluorophenyl)-1-(4-(thiazol-5-yl)phenyl)but-1-en-1-yl)phenyl)acrylic acid]	≥ 40	≤ 0.1	++ (++ = a single % value ≧ 40%)	≤ 0.1
N#Cc1ccc(/C(=C(\c2ccc(/C=C/C(=O)O)cc2)c2ccc(-c3cn[nH]c3)cc2)C2CCC2)c(Cl)c1 [Example 3, (E)-3-(4-((E)-1-(4-(1H-Pyrazol-4-yl)phenyl)-2-(2-chloro-4-cyanophenyl)-2-cyclobutylvinyl)phenyl) acrylic acid]	≥ 40	≤ 0.1	++ (++ = a single % value ≧ 40%)	≤ 0.1
COc1ccc(/C(=C(\c2ccc(/C=C/C(=O)O)cc2)c2ccc(N3CCOCC3)cc2)C2CCC2)c(Cl)c1 [Example 4, (E)-3-(4-((E)-2-(2-Chloro-4-methoxyphenyl)-2-cyclobutyl-1-(4-morpholinophenyl)vinyl)phenyl)acrylic acid]	≥ 40	≤ 0.1	++ (++ = a single % value ≧ 40%)	≤ 0.1
N#Cc1ccc(/C(=C(\c2ccc(/C=C/C(=O)O)cc2)c2ccc(-c3cncs3)cc2)C2CCC2)c(Cl)c1 [Example 5, (E)-3-(4-((E)-2-(2-Chloro-4-cyanophenyl)-2-cyclobutyl-1-(4-(thiazol-5-yl)phenyl)vinyl)phenyl)acrylic acid]	≥ 40	≤ 0.1	++ (++ = a single % value ≧ 40%)	≤ 0.1
CC/C(=C(/c1ccc(/C=C/C(=O)O)cc1)c1ccc(-c2ccn[nH]2)cc1)c1ccccc1 [Example 6, (E)-3-(4-((E)-1-(4-(1H-Pyrazol-5-yl)phenyl)-2-phenylbut-1-en-1-yl)phenyl)acrylic acid]	≥ 40	≤ 0.1	++ (++ = a single % value ≧ 40%)	> 0.1
CC/C(=C(/c1ccc(/C=C/C(=O)O)cc1)c1cccc(-c2ccn[nH]2)c1)c1ccccc1 [Example 7, (E)-3-(4-((E)-1-(3-(1H-Pyrazol-5-yl)phenyl)-2-phenylbut-1-en-1-yl)phenyl)acrylic acid]	≥ 40	> 0.1	+ (+ = a single % value < 40%)	> 0.1
CC/C(=C(/c1ccc(/C=C/C(=O)O)cc1)c1ccc(-c2nccs2)cc1)c1ccccc1 [Example 8, (E)-3-(4-((E)-2-Phenyl-1-(4-(thiazol-2-yl)phenyl)but-1-en-1-yl)phenyl)acrylic acid]	≥ 40	≤ 0.1	++ (++ = a single % value ≧ 40%)	> 0.1
CC/C(=C(/c1ccc(/C=C/C(=O)O)cc1)c1ccc(-c2cncs2)cc1)c1ccccc1 [Example 9, (E)-3-(4-((E)-2-Phenyl-1-(4-(thiazol-5-yl)phenyl)but-1-en-1-yl)phenyl)acrylic acid]	≥ 40	≤ 0.1	++ (++ = a single % value ≧ 40%)	≤ 0.1
CC/C(=C(/c1ccc(/C=C/C(=O)O)cc1)c1ccc(-c2cscn2)cc1)c1ccccc1 [Example 10, (E)-3-(4-((E)-2-Phenyl-1-(4-(thiazol-4-yl)phenyl)but-1-en-1-yl)phenyl)acrylic acid]	≥ 40	≤ 0.1	++ (++ = a single % value ≧ 40%)	> 0.1
CC/C(=C(/c1ccc(/C=C/C(=O)O)cc1)c1cccc(-c2nccs2)c1)c1ccccc1 [Example 11, (E)-3-(4-((E)-2-Phenyl-1-(3-(thiazol-2-yl)phenyl)but-1-en-1-yl)phenyl)acrylic acid]	< 40	> 0.1	+ (+ = a single % value < 40%)	> 0.1
CC/C(=C(/c1ccc(/C=C/C(=O)O)cc1)c1cccc(-c2cscn2)c1)c1ccccc1 [Example 12, (E)-3-(4-((E)-2-Phenyl-1-(3-(thiazol-4-yl)phenyl)but-1-en-1-yl)phenyl)acrylic acid]	< 40	> 0.1	+ (+ = a single % value < 40%)	> 0.1
O=C(O)/C=C/c1ccc(/C(=C(\c2ccccc2)C2CCC2)c2ccc(-c3cncs3)cc2)cc1 [Example 13, (E)-3-(4-((E)-2-Cyclobutyl-2-phenyl-1-(4-(thiazol-5-yl)phenyl)vinyl)phenyl)acrylic acid]	≥ 40	≤ 0.1	++ (++ = a single % value ≧ 40%)	≤ 0.1
CC/C(=C(/c1ccc(/C=C/C(=O)O)cc1)c1ccc(-c2cccnc2)cc1)c1ccccc1 [Example 14, (E)-3-(4-((E)-2-Phenyl-1-(4-(pyridin-3-yl)phenyl)but-1-en-1-yl)phenyl)acrylic acid]	≥ 40	≤ 0.1	++ (++ = a single % value ≧ 40%)	> 0.1
CC/C(=C(/c1ccc(/C=C/C(=O)O)cc1)c1ccc(-c2cnsc2)cc1)c1ccccc1 [Example 15, (E)-3-(4-((E)-1-(4-(Isothiazol-4-yl)phenyl)-2-phenylbut-1-en-1-yl)phenyl)acrylic acid]	≥ 40	≤ 0.1	++ (++ = a single % value ≧ 40%)	> 0.1
CC/C(=C(/c1ccc(/C=C/C(=O)O)cc1)c1ccc(N2CCOCC2)cc1)c1ccccc1 [Example 16, (E)-3-(4-((E)-1-(4-Morpholinophenyl)-2-phenylbut-1-en-1-yl)phenyl)acrylic acid]	≥ 40	≤ 0.1	++ (++ = a single % value ≧ 40%)	≤ 0.1
CC/C(=C(/c1ccc(/C=C/C(=O)O)cc1)c1ccc(-n2ccnc2)cc1)c1ccccc1 [Example 17, (E)-3-(4-((E)-1-(4-(1H-Imidazol-1-yl)phenyl)-2-phenylbut-1-en-1-yl)phenyl)acrylic acid]	≥ 40	> 0.1	++ (++ = a single % value ≧ 40%)	> 0.1
CC/C(=C(/c1ccc(/C=C/C(=O)O)cc1)c1ccc(-c2cnco2)cc1)c1ccccc1 [Example 18, (E)-3-(4-((E)-1-(4-(Oxazol-5-yl)phenyl)-2-phenylbut-1-en-1-yl)phenyl)acrylic acid]	≥ 40	≤ 0.1	++ (++ = a single % value ≧ 40%)	≤ 0.1
